Patent US20170052170A1, “NOVEL CELL LINES AND METHODS” (priority 2009, published 2017)
Bridge positions count the residues as written; N and C are the ends. Peptide text beside a SMILES is read from it.

Assays:
[1] = molecular target: T1, human GC-C (Homo sapiens, UniProt P25092, F281L); conditions: Forte et al. 1999; cited from earlier work
[2] = molecular target: T1, human GC-C; experiment: cGMP competitive ELISA / Direct Cyclic GMP Enzyme Immunoassay, GC-C-expressing 293T cell line; type: cell-based; set-up: expressed in transfected cells; host or cells: 293T
Protocol: Populations of cells were tested using functional criteria. The Direct Cyclic GMP Enzyme Immunoassay Kit (Cat. 900-014; AssayDesigns, Inc.) was used according to manufacturer's instructions: (http://www.assaydesigns.com/objects/catalog//product/extras/900-014.pdf). Cells were tested at 4 different densities in 96- or 384-well plates and responses were analyzed. The following conditions were used for the GC-C-expressing cell lines of the invention: • Clone screening: 1:2 and 1:3 splits of confluent 96-well plates 48 hour prior to assay, 30 minutes guanylin treatment. • Dose-response studies: densities of 20,000, 40,000, 60,000, 80,000, 120,000 and 160,000 per well, 30 minutes guanylin treatment (see Example 8). • Z′ studies: densities of 160,000 and 200,000 per well were used, 30 minutes guanylin treatment (see Example 9).
A competitive ELISA for detection of cGMP was used to characterize native GC-C function in the produced GC-C-expressing cell line. Cells expressing GC-C were maintained under standard cell culture conditions in Dulbecco's Modified Eagles medium (DMEM) supplemented with 10% fetal bovine serum, glutamine and HEPES and grown in T175 cm flasks. For the ELISA, the cells were plated into coated 96-well plates (poly-D-lysine).
Cells were washed twice with serum-free medium and incubated with 1 mM IBMX for 30 minutes. Desired activators (i.e., guanylin, 0.001-40 μM) were then added to the cells and incubated for 30-40 minutes. Supernatant was removed, and the cells were washed with TBS buffer. […]. This was followed by lysis with 0.1N HCl and a freeze/thaw cycle at −20° C./room temperature. […]
All of the following steps were performed at room temperature, unless otherwise indicated. […] The absorbance was then read at 405 nm on a SAFIRE^2™ plate reader (Tecan). […]
Z′ for the produced GC-C-expressing cell line was calculated using a direct competitive ELISA assay. […] Absorbance (corresponding to cGMP levels) in the two conditions was monitored using a SAFIRE^2™ plate reader (Tecan). […]

[3] = test system: human bitter receptor-Gα15 cell lines; experiment: isoproterenol dose response (intracellular free calcium) in human bitter receptor-Gα15 cell lines; type: cell-based; conditions: change in intracellular free calcium, read-out: EC50 in a dose response curve conducted with the cell or cell line
Description: In some embodiments, the bitter receptor is a functional bitter receptor. In some embodiments, the cell or cell line has a change in the concentration of intracellular free calcium when contacted with isoproterenol. […] In some embodiments, the cell or cell line has a signal to noise ratio of greater than 1.
According to yet another aspect of the present invention, a method of identifying a modulator of a bitter receptor function comprises: a) exposing a cell or cell line that stably expresses a bitter receptor to a test compound; and b) detecting a change in a function of the bitter receptor. In some embodiments, the detecting utilizes an assay that measures intracellular free calcium. In some embodiments, the intracellular free calcium is measured using one or more calcium-sensitive fluorescent dyes, a fluorescence microscope, and optionally a fluorescent plate reader, wherein at least one fluorescent dye binds free calcium. In some other embodiments, the intracellular free calcium is monitored by real-time imaging using one or more calcium-sensitive fluorescent dyes, wherein at least one fluorescent dye binds free calcium.
FIG. 16 is a graph showing dose response curves of relative responses to isoproterenol in 25 human bitter receptor-Gα15 cell lines.

[4] = test system: human CFTR; experiment: Fluorescence membrane potential assay, CHO cell lines stably expressing CFTR; type: cell-based; conditions: 15,000 cells/well, 384-well plate; read-out: EC50 (cell fluorescence response)
Protocol: CHO cell lines stably expressing CFTR were maintained under standard cell culture conditions in Ham's F12 medium supplemented with 10% fetal bovine serum and glutamine. On the day before assay, the cells were harvested from stock plates and plated into black clear-bottom 384 well assay plates. The assay plates were maintained in a 37° C. cell culture incubator under 5% CO2 for 22-24 hours. The media was then removed from the assay plates and blue membrane potential dye (Molecular Devices Inc.) diluted in loading buffer (137 mM NaCl, 5 mM KCl, 1.25 mM CaCl2, 25 mM HEPES, 10 mM glucose) was added and allowed to incubate for 1 hour at 37° C. […] The cellular response as a function of changes in cell fluorescence was monitored over time by a fluorescent plate reader (Hamamatsu FDSS). […] Z' value for the produced stable CFTR-expressing cell line was calculated using a high-throughput compatible fluorescence membrane potential assay. The fluorescence membrane potential assay protocol was performed substantially according to the protocol in Example 12. […] Cell responses in the two conditions were monitored using a fluorescent plate reader (Hamamatsu FDSS). Mean and standard deviations in the two conditions were calculated and Z' was computed using the method disclosed in Zhang et al., J Biomol Screen, 4(2): 67-73, (1999). […]

T1 sequence (P25092 24-1073 F281L): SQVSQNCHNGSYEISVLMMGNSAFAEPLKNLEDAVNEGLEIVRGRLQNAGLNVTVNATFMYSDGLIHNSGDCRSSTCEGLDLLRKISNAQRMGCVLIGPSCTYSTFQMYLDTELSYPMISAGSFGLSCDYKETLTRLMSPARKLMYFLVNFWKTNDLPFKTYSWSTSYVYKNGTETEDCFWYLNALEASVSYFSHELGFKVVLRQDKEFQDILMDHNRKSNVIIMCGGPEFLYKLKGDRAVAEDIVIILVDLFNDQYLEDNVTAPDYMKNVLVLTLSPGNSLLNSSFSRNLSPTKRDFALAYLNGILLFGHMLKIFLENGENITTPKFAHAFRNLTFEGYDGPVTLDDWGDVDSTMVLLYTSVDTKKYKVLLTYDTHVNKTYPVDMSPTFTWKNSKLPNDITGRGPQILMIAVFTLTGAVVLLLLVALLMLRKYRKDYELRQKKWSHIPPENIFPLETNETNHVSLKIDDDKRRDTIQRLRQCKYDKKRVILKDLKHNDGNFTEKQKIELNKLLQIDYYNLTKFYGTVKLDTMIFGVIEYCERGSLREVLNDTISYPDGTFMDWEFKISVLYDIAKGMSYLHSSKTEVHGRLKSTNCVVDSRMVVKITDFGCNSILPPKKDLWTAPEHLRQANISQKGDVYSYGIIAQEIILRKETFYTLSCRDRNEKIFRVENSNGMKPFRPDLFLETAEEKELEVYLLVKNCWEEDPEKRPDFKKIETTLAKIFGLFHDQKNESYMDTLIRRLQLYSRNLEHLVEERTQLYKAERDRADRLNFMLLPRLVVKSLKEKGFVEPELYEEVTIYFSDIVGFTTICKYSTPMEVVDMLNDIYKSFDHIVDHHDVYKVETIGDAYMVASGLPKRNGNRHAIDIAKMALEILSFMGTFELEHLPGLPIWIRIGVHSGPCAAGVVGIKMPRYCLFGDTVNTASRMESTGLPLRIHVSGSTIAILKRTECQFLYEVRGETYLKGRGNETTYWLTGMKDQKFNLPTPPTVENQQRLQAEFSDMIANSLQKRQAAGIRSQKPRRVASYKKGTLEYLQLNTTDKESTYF

For `CC[C@H](C)[C@@H]1NC(=O)[C@H](CCC(=O)O)NC(=O)[C@@H](NC(=O)[C@@H](NC(=O)CNC(=O)[C@@H]2CCCN2)[C@@H](C)O)CSSC[C@@H]2NC(=O)[C@H](C)NC(=O)[C@H](C)NC(=O)[C@H](Cc3ccc(O)cc3)NC(=O)[C@H](C)NC(=O)[C@H](CSSC[C@@H](C(=O)O)NC(=O)CNC(=O)[C@H]([C@@H](C)O)NC2=O)NC1=O` [guanylin] (H-PGTCEICAYAACTGC-OH; disulfide 4-12, 7-15 (inferred); N-terminus and C-terminus assumed), the “level of cGMP previously reported in other cell lines” value [1] is listed as 3.5 pmol/mL, the “absorbance in cGMP ELISA (reduction corresponds to increased cGMP levels)” value ([2]; 100 nM guanylin) is listed as “Reduction in absorbance” and the EC50 ([2]; 30 minutes treatment, 96-well plate, read-out: EC50 value (cGMP response)) is listed as 1.1 nM. The “level of cGMP” value ([2]; produced GC-C-expressing cell line, low concentrations of guanylin) was 6 pmol/mL.

Work on `CC(C)NCC(O)c1ccc(O)c(O)c1` (stereo not drawn) [isoproterenol] yielded an EC50 [3] of 1 to 20 nM.

Compound `C=C[C@@]1(C)CC(=O)[C@]2(O)[C@@]3(C)[C@@H](O)CCC(C)(C)[C@@H]3[C@H](O)[C@H](OC(C)=O)[C@@]2(C)O1` [forskolin] has an EC50 [4] of 256 nM.
